{"source": "patent US8242160B2", "about": "“Inhibitors of ubiquitin E1” (The United States of America, as represented by the …, priority 2005, dated 2012)", "key": {"Nedd4": {"system": "Nedd4", "experiment": "In vitro autoubiquitination of HECT E3 Nedd4", "type": "biochemical", "description": "It was then evaluated whether 4-[4-(5-nitro-furan-2-ylmethylene)-3,5-dioxo-pyrazolidin-1-yl]-benzoic acid methyl acid blocks autoubiquitination of both RING finger E3s (Mdm2) and HECT E3s (Nedd4) in vitro.\n5 pmole per experimental point of bacterially expressed GST-Mdm2 (or GST-Nedd) is coupled to glutathione Sepharose (GS) for 30 minutes at room temperature with tumbling, followed by 3× wash with 50 mM Tris pH 7.5. Following this, 20 μl of 1× buffer is added (40 μl 10× reaction buffer*, 40 μl 10× PCK**, 320 μl dH2O). The test compound in DMSO is then added to the desired concentration with an equal volume of DMSO used as a control. Samples are incubated with shaking for 1 hr at 23° C. To carry out the reaction, a pre-made cocktail of Rabbit E1 (Calbiochem #6620700)/UbCH5B/^32P Ub cocktail (1 μl/0.5 μl/1 μl) is added followed by 15 minutes shaking at 30° C. The reaction is terminated by addition of 8 μl 4× reducing SDS-PAGE loading buffer. After dissociating proteins from the beads at 100° C. for 2 minutes, samples are resolved on 6% PAGE followed by exposure of the dried gel to phosphor screen. Note: ^32P Ub is derived from GST-Ub that has been engineered to include a PKA phosphorylation site. This fusion protein is purified on glutathione Sepharose, phosphorylated, following this, the ^32P Ub ubiquitin is cleaved and purified away from the thrombin."}, "E1": {"biological_target": "T1, E1 (Homo sapiens, UniProt P22314)", "T1 construct": "endogenous in cells; host or cells: RPE cells", "T1 sequence (P22314 1-1058)": "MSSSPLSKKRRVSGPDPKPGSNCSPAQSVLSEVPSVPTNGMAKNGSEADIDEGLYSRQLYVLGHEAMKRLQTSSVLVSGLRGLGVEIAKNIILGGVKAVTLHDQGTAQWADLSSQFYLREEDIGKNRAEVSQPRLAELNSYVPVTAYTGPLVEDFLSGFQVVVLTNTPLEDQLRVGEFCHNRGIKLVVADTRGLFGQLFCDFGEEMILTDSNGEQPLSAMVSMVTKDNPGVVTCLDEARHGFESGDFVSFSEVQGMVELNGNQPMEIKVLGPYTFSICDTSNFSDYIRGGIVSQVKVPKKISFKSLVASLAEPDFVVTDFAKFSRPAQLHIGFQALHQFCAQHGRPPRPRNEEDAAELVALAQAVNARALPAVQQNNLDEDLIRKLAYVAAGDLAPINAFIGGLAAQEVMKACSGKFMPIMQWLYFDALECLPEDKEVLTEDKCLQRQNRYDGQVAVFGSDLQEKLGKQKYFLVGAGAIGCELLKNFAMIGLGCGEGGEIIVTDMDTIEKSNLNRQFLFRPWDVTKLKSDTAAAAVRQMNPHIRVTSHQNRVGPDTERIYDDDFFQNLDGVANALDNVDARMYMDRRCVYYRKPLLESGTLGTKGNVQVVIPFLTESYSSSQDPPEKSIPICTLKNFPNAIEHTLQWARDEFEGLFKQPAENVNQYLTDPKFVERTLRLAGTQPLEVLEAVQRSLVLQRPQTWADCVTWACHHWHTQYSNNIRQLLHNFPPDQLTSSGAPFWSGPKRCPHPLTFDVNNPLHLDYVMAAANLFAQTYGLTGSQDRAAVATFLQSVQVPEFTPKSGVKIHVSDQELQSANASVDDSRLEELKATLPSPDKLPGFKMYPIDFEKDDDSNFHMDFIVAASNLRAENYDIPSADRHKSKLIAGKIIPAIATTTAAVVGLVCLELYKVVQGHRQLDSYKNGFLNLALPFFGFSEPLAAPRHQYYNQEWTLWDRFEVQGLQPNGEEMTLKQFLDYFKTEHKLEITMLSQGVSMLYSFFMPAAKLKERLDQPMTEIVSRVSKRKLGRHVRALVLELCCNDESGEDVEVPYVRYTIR", "experiment": "Loading of E1 with ubiquitin in cells, anti-E1 immunoblot", "type": "cell-based", "conditions": "50 μM, 1 hour", "description": "RPE cells were treated with the E1 inhibitor of 4-[4-(5-nitro-furan-2-ylmethylene)-3,5-dioxo-pyrazolidin-1-yl]-benzoic acid methyl acid (designated as EI-41, 50 μM), HLI98C (50 μM) or iodoacetamide […] for 1 hour followed by lysis, SDS-PAGE under either non-reducing (FIG. 7A) or reducing (FIG. 7B) conditions and immunoblotting with anti-E1. Results are shown in FIGS. 7A and 7B, where the EI-41 compound is shown to inhibit the loading of EI with ubiquitin."}, "[1]": {"system": "MEFs from p53-deficient mice", "experiment": "Killing of MEFs from p53-deficient mice", "type": "cell-based, mouse", "source_text": "While p53 induces apoptotic cell death in many tumor cells, it generally only induces growth arrest in untransformed cells. This has been the rationale for many studies targeting the p53 system."}, "GST-UbcH5B": {"biological_target": "T2, GST-UbcH5B (Homo sapiens, UniProt P62837)", "T2 construct": "made in house; host or cells: bacteria", "T2 sequence (P62837 whole entry)": "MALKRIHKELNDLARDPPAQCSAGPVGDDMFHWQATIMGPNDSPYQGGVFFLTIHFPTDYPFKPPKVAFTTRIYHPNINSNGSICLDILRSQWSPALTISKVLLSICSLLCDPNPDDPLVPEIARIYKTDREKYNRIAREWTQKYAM", "experiment": "E1+E2 assay: formation of E2-ubiquitin complex", "type": "biochemical", "conditions": "E1 preloaded with 32P-labeled ubiquitin, then E2 added with compound", "description": "One way that the compounds might inactivate E1 is by alkylating or otherwise irreversibly inactivating active site cysteines. Like E1, E2 also uses a cysteine to form thiolester bond with ubiquitin. Inhibitors that directly act on the cysteine of E1 might therefore also affect E2 activity, and thus function in a relatively non-specific manner. […]\nc. E1+E2 Assay with Immobilized E2 • 20 pmoles of bacterially-expressed GST-UbcH5B are bound to GS beads for 30 minutes at room temperature. […] This is followed by resolution by SDS-PAGE under non-reducing conditions and exposure as above."}, "p53": {"system": "p53", "experiment": "Cellular p53 level by immunoblotting", "type": "cell-based", "conditions": "six hours treatment; RPE cells", "source_text": "FIG. 5A depicts the increase in the levels of Mdm2 and p53 in RPE cells after treatment with the E1 inhibitor 4-[4-(5-nitro-furan-2-ylmethylene)-3,5-dioxo-pyrazolidin-1-yl]-benzoic acid methyl acid."}, "cyclin E": {"system": "cyclin E", "experiment": "Degradation of in vitro translated cyclin E in S-100 cytosolic extract", "type": "biochemical", "source_text": "Cytosolic extracts from cells (S-100) contain all the components for ubiquitination and proteasomal degradation. To further evaluate 4-[4-(5-nitro-furan-2-ylmethylene)-3,5-dioxo-pyrazolidin-1-yl]-benzoic acid methyl acid, we made use of in vitro translated cyclin E, which is degraded in S-100 in a time-dependent manner (FIG. 3, upper panel, lanes 1-4)."}, "NFκB": {"system": "NFκB", "experiment": "NFκB response element-driven luciferase reporter, IL-1 induced", "type": "cell-based, human", "conditions": "HeLa cells, 50 μM for 10 minutes, then IL-1 0-1.0 ng/ml for 2 hours", "description": "HeLa cells (human epithelial cells) were transfected with a NFκB response element-driven luciferase reporter. The cells were treated with E1 41 (50 μM) for 10 minutes, or dimethyl sulfoxide (DMSO) control. Interleukin 1 (IL-1) was added to the cells for 2 hours. IL-1 was added at concentrations ranging from 0-1.0 ng/ml to induce activation of NFκB. An assay for luciferase activity was carried out according to the methods as described in the commercially available PROMEGA system for luciferase detection."}}}
{"smiles": "COC(=O)c1ccc(N2NC(=O)/C(=C/c3ccc([N+](=O)[O-])o3)C2=O)cc1", "note": "[E1-41, 4-[4-(5-nitro-furan-2-ylmethylene)-3,5-dioxo-pyrazolidin-1-yl]-benzoic acid methyl acid]", "values": [{"measurement": "autoubiquitination of Nedd4", "setting": "Nedd4", "result": "inhibits the autoubiquitination of Nedd4"}, {"measurement": "E1-Ub thiol-ester formation in RPE cells", "setting": "E1", "result": "inhibit E1-Ub thiol-ester formation"}, {"measurement": "killing of MEFs from p53-deficient mice", "setting": "[1]", "result": "relatively resistant"}, {"measurement": "transfer of ubiquitin from E1 to E2 (formation of E2-ubiquitin complex)", "setting": "GST-UbcH5B", "result": "did not affect transfer of ubiquitin from E1 to E2"}, {"measurement": "cellular p53 level", "setting": "p53", "result": "increased"}, {"measurement": "cyclin E degradation in S-100", "setting": "cyclin E; no exogenous E1", "result": "block cyclin E degradation"}, {"measurement": "cyclin E degradation in S-100 after addition of purified exogenous E1", "setting": "cyclin E; purified exogenous E1 added to the reaction mixture", "result": "inhibition of cyclin E degradation was prevented"}, {"measurement": "IL-1 induced NFκB luciferase reporter activity", "setting": "NFκB", "result": "reduction of luciferase activity"}]}
